Source: PubChem BioAssay (NCI)
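Step 1: Grow cells in 96-well plates. Step 2: Expose to compound for 48 hours at 5 concentrations. Step 3: Interpolate endpoints linearly; if unreached, use highest concentration. Abbreviation: GI50, concentration required for 50% inhibition of growth. At the TGI there is no net growth.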

How the values were obtained:
Test in all cases: inhibition of tumour cell growth, NCI panel, 48 h
[1] = tested on: KM12 colon
[2] = tested on: OVCAR-5 ovarian
[3] = tested on: SK-MEL-28 melanoma
[4] = tested on: NCI-H23 lung
[5] = tested on: DU-145 prostate
[6] = tested on: SK-MEL-2 melanoma
[7] = tested on: NCI-H522 lung
[8] = tested on: RXF 393 renal
[9] = tested on: M14 melanoma
[10] = tested on: HOP-62 NSCLC

Row | SMILES | TGI [1] [µM] | TGI [2] [µM] | TGI [3] [µM] | TGI [4] [µM] | TGI [5] [µM] | TGI [6] [µM] | TGI [7] [µM] | TGI [8] [µM] | TGI [9] [µM] | TGI [10] [µM] | GI50 [1] [µM] | GI50 [2] [µM] | GI50 [3] [µM] | GI50 [4] [µM] | GI50 [9] [µM] | GI50 [5] [µM] | GI50 [10] [µM] | GI50 [6] [µM] | GI50 [7] [µM] | GI50 [8] [µM]
1 | COc1cc2c(cc1OC)[C@H](C)N1CCc3cc(OC)c(OC)cc3[C@@H]1C2 | > 100 | > 100 | > 100 | > 100 | > 100 | > 100 | > 100 | – | – | – | – | – | – | – | – | – | – | – | – | –
2 | CC(CN(C)C)/C(=N\Nc1ccccc1)c1ccccc1 (centres undefined) | 14.4 | 5.45 | 5.79 | 23.4 | – | – | 25.1 | 65.4 | 16.8 | 12 | – | – | – | – | – | – | – | – | – | –
3 | Cc1cc(NCCCN(C)C)c2ccc3c(ccc4c(NCCCN(C)C)cc(C)nc43)c2n1 | 0.57 | 0.909 | 0.413 | 0.673 | 0.436 | 0.55 | 0.554 | – | 0.397 | 0.489 | 0.205 | 0.246 | 0.187 | 0.23 | 0.194 | 0.159 | 0.196 | 0.228 | 0.202 | –
4 | CCCCCCC[CH2][Sn]([CH2]CCCCCCC)([O]c1cccc2cccnc12)[O]c1cccc2cccnc12 | 4.19 | 8.21 | – | – | – | 3.14 | 3.86 | 8.07 | 3.17 | 3.67 | 1.91 | 3.02 | – | – | 1.33 | – | 2.11 | 1.61 | 0.605 | 2.06
5 | CC1(C)C2CCC13C(=O)C1OC3(C2)C2C(=O)c3ccccc3C(=O)C12 (centres undefined) | > 100 | > 100 | > 100 | > 100 | – | > 100 | > 100 | > 100 | > 100 | > 100 | 82.9 | > 100 | > 100 | > 100 | > 100 | – | > 100 | > 100 | > 100 | > 100
6 | O=C1NC(Nc2ccccc2)=NC(C(F)(F)F)(C(F)(F)F)N1 | > 100 | > 100 | > 100 | > 100 | > 100 | 75.4 | – | – | 83.5 | > 100 | – | – | – | – | – | – | – | – | – | –
7 | CSc1nnc(CCC(=O)Nc2c(C)cccc2C)o1 | > 100 | > 100 | > 100 | > 100 | – | > 100 | > 100 | > 100 | > 100 | > 100 | – | – | – | – | – | – | – | – | – | –
8 | CC(=O)Nc1ccc(S(=O)(=O)N/N=C/CN2C(=O)c3ccccc3C2=O)cc1 | > 100 | – | – | > 100 | – | > 100 | > 100 | > 100 | > 100 | > 100 | – | – | – | – | – | – | – | – | – | –
9 | COc1cc2ccnc3c2c(c1OC)-c1coc(SC)c1-3 | > 100 | > 100 | – | – | – | > 100 | > 100 | 52.1 | > 100 | > 100 | – | – | – | – | – | – | – | – | – | –
10 | C=C/C=C/NC(=O)OCc1ccccc1 | > 100 | > 100 | > 100 | – | – | > 100 | > 100 | > 100 | > 100 | > 100 | – | – | – | – | – | – | – | – | – | –
